Test results reported in ChEMBL document CHEMBL1201862, “PubChem BioAssay data set” (2004).
Active and inactive are the calls of the source.

Assays:
[1] = target: T1, Heat shock protein HSP 90-alpha (Homo sapiens, UniProt P07900); type: functional, organism-based
[2] = tested on: INS1; experiment: beta cell apoptosis inhibitors, cytokine rescue, dose response, luminescence, retest (AID 449756); type: functional, cell-based; conditions: Rattus norvegicus;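 also: cell death triggered by IL-1 beta plus TNF-alpha plus IFN-gamma mixture; protective hits raise ATP signal compared with cytokine alone wells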
[3] = target: Beta Lactamase (Pseudomonas aeruginosa, UniProt Q932Y6); experiment: beta-lactamase reporter inhibitor potency, dose response, artefact control for NOD2-RIPK2 interaction inhibitor project, BLA reporter cells, FRET fluorescence (AID 651552); type: functional, cell-based
[4] = Fluorescence-based cell-based high throughput dose response assay for inhibitors of the interaction of nucleotide-binding oligomerization domain containing 2 (NOD2) and the receptor-interacting serine-threonine kinase 2 (RIPK2).; type: functional; conditions: Homo sapiens
[5] = HeLa cell cytotoxicity, dose response, cytotoxicity control for MgcRacGAP inhibitor project (AID 624300); type: functional
[6] = target: T2, Streptokinase A (Streptococcus pyogenes serotype M1, UniProt P10520); experiment: S. pyogenes streptokinase expression inhibitors, potency, dose response, plasminogen activation absorbance, OD405 (AID 1914); type: functional, Streptococcus pyogenes M1 GAS;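 also: secreted streptokinase activity via plasminogen activation per viability signal from cell pellet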
T2 sequence (P10520 whole entry): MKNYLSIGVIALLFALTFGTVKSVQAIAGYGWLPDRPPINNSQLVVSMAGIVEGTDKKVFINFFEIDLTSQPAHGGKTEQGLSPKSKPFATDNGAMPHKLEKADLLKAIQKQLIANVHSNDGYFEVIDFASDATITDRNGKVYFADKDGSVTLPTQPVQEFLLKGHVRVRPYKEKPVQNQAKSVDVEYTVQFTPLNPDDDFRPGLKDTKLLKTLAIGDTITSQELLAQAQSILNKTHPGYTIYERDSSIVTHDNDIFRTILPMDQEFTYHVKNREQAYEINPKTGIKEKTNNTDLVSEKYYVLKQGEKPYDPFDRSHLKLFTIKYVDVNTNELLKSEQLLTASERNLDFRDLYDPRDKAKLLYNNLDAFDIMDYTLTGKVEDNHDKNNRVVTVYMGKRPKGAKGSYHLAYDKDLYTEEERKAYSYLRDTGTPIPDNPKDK

[7] = tested on: Streptococcus sp. 'group A'; experiment: growth inhibition of control SK(-) GAS strain, dose response, counter-screen for streptokinase expression inhibitor project, luminescence, kanamycin, BacTiterGlo, confirmation (AID 1900); type: functional, organism-based
[8] = target: T1, Heat shock protein HSP 90-alpha; experiment: Luminescence-based dose response biochemical high throughput screening assay for inhibitors of the Heat Shock Protein 90 (HSP90). [Related pubchem assays: 1831 (Summary AID.), 1846 (Confirmation screen.), 1789 (Primary screen.)]
[9] = tested on: Streptococcus; experiment: Group A Streptococcus viability loss, dose response, counter-screen for streptokinase expression inhibitor project, luminescence, BacTiterGlo (AID 1915); type: functional, organism-based;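 also: potency for reduction of bacterial viability or growth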
[10] = target: T3, Rac GTPase-activating protein 1 (Homo sapiens, UniProt Q9H0H5); experiment: MgcRacGAP GTPase-activating activity inhibitors, confirmation, biochemical, ADP Hunter fluorescence, primary and confirmatory (AID 624330); type: functional
T3 sequence (Q9H0H5 whole entry): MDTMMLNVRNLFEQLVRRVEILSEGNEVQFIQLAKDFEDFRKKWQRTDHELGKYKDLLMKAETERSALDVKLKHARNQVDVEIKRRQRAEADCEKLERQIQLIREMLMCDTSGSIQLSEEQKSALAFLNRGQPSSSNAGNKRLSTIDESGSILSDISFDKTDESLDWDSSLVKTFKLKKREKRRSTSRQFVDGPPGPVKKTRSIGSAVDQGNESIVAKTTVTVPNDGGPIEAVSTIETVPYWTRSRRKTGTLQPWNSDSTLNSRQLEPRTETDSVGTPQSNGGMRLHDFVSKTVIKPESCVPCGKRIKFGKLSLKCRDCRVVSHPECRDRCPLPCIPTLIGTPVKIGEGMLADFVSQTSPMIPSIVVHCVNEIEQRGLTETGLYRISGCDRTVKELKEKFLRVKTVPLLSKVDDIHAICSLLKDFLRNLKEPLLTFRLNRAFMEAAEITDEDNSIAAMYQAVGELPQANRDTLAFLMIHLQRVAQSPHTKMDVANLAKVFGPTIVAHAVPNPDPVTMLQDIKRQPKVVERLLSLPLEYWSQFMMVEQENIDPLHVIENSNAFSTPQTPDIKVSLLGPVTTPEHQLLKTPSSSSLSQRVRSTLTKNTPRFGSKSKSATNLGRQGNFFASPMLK

[11] = target: T4, Heat shock factor protein 1 (Mus musculus, UniProt P38532); experiment: HSF1 potentiators in luciferase reporter cells, confirmation, cell-based, NIH3T3, luminescence, dose retest (AID 435004); type: functional;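 also: stress induced by proteasome inhibitor MG132 added 30 min after compound; luciferase reporter driven by HSF1 response element in NIH3T3 cells; actives raise luminescence as potentiators of the MG132 stress response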
T4 sequence (P38532 whole entry): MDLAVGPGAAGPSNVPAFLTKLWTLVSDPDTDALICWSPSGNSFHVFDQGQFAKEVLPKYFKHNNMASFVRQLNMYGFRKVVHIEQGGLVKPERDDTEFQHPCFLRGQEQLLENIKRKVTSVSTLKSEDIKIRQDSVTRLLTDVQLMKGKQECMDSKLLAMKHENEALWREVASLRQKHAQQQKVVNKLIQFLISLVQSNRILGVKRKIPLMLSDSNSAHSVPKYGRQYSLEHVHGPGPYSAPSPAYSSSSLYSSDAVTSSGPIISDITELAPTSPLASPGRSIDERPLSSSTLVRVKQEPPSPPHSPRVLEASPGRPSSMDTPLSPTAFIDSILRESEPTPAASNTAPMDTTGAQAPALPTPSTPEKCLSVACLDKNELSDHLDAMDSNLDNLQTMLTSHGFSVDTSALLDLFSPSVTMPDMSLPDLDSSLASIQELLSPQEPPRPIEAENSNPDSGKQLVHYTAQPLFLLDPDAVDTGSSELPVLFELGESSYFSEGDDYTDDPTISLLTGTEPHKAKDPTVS

[12] = target: T5, Endoribonuclease toxin MazF (Escherichia coli K-12, UniProt P0AE70); experiment: fluorescent RNA oligo signal without MazF, dose response, counter-screen for MazEF activator project, biochemical, fluorescence, single-stranded RNase substrate (AID 588502); type: functional
T5 sequence (P0AE70 whole entry): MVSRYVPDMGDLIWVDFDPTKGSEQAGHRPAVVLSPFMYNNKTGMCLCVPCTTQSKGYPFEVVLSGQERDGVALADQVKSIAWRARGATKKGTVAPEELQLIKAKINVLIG

[13] = target: T5, Endoribonuclease toxin MazF; experiment: MazF toxin RNase activators, dose response, biochemical, fluorescence, single-stranded RNA substrate, uHTS hits (AID 588481); type: functional
[14] = target: Beta-lactamase (Salmonella choleraesuis (strain SC-B67), UniProt Q5J463)
[15] = target: Beta-lactamase (Pseudomonas aeruginosa, UniProt Q79MP6);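 also: biochemical dose-response test of metallo-beta-lactamase enzyme inhibition, read out by epi-absorbance; purified recombinant IMP-1 metallo-beta-lactamase with nitrocefin as substrate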
[16] = target: T6, Low molecular weight phosphotyrosine protein phosphatase (Homo sapiens, UniProt P24666); type: functional; conditions: read-out: IC50_Mean
T6 sequence (P24666 whole entry): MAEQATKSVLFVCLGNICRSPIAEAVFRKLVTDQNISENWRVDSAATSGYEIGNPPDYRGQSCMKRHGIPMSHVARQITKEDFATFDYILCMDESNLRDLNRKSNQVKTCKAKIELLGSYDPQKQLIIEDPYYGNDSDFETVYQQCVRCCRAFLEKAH

[17] = target: T6, Low molecular weight phosphotyrosine protein phosphatase; type: functional; conditions: read-out: IC50_Mean; remark: listed apart in the source
[18] = target: T7, Sentrin-specific protease 1 (Homo sapiens, UniProt Q9P0U3); experiment: Dose response confirmation of small molecule inhibitors of the catalytic domain of the SUMO protease, SENP1 in a FRET assay.; type: functional; conditions: read-out: IC50_Mean
[19] = target: T7, Sentrin-specific protease 1; experiment: potency of human SENP1 inhibitors, dose response, biochemical, kinetic FRET (AID 651697); type: functional; conditions: read-out: IC50_Mean

T7 sequence (Q9P0U3 whole entry, the tested form may be a part): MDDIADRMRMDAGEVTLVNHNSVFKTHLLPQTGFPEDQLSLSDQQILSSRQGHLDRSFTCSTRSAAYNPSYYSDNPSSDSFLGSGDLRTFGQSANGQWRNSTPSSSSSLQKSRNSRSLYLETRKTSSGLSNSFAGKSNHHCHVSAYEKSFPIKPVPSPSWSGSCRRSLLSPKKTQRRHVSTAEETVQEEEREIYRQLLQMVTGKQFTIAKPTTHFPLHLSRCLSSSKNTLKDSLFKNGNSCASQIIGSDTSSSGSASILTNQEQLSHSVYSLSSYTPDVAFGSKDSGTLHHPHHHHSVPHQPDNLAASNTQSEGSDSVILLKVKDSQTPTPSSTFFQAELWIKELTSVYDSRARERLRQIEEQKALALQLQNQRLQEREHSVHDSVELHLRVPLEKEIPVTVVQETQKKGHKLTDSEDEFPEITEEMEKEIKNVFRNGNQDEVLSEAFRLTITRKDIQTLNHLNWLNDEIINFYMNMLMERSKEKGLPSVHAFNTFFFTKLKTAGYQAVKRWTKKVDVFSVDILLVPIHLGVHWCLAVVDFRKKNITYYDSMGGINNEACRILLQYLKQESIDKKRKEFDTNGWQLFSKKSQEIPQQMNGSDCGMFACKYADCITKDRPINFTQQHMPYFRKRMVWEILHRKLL
Beta-lactamase (Salmonella choleraesuis (strain SC-B67), UniProt Q5J463), sequence (Q5J463 whole entry): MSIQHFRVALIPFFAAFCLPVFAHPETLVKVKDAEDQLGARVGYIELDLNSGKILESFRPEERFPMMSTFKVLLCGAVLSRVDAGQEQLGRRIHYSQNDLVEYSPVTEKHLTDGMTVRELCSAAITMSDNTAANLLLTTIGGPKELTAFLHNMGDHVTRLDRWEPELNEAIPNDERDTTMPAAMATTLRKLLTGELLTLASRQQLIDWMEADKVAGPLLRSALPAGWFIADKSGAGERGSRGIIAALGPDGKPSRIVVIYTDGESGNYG
Beta-lactamase (Pseudomonas aeruginosa, UniProt Q79MP6), sequence (Q79MP6 whole entry): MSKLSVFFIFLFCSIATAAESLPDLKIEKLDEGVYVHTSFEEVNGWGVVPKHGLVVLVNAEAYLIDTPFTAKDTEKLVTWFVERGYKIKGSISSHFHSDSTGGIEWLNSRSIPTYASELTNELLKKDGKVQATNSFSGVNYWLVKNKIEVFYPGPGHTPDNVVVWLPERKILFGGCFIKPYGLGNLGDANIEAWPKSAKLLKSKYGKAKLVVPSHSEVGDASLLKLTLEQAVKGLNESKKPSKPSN
Beta Lactamase, sequence (Q932Y6 whole entry, the tested form may be a part): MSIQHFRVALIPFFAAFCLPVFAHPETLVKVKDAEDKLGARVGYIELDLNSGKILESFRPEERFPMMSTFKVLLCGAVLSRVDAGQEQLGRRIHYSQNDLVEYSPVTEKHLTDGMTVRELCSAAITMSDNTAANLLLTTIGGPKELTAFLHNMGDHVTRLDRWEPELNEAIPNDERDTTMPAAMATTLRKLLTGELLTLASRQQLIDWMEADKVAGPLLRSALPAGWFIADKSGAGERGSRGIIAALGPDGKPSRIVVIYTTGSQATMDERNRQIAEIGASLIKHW

With `O=[N+]([O-])/C=C/c1ccc2c(ccn2Cc2ccccc2)c1` the AC50 [1] was 3.42 µM (active), the AC50 [2] was 6.82 µM (active) and the IC50 [3] was 30 µM (inactive). The IC50 [4] was 1.74 µM (active), the CC50 [5] was 42 µM (active) and the EC50 [6] was 6.15 µM (active). The EC50 [7] was 2.91 µM (active), the IC50 [8] was 2.98 µM (active) and the EC50 [9] was 11.6 µM (active). For the same compound, the IC50 [10] was 23.3 µM (active) and the EC50 [11] was 5.7 µM (active).

With `CCOc1cc2c(cc1/C=C/c1noc(C)c1[N+](=O)[O-])OC(C)C2` (centres undefined) the EC50 [12] was > 99 µM (inactive), the EC50 [13] was > 99 µM (inactive) and the IC50 [14] was > 59.6 µM (inactive). For the same compound, the IC50 [15] was > 59.6 µM (inactive).

In the case of `CC(=O)Nc1ccc(CNc2nc(NCC3CC3)nc3ccsc23)cc1`, the IC50 [16] is reported as 17 µM (active) and the IC50 [17] is reported as 12.6 µM (active).

With `O=C1C=C(c2cccc(Cl)c2O)C[C@@H](c2ccc3c(c2)OCO3)C1` the IC50 [18] was 0.993 µM (active) and the IC50 [19] was 1.93 µM (active).
